Assay results: patent US20050165224A1, “Inhibition of penicillin resistance in s. pneumoniae” (priority 2000, published 2005)
Converted amounts (≈) assume the structure as drawn.

How the values were obtained:
Assay in all cases: Penicillin MIC (E-test / population analysis)
Type in all cases: cell-based
[1] = tested on: S. pneumoniae Hun663Tr4Tr5, disrupted murMN operon; conditions: Streptococcus pneumoniae, strain Hun663Tr4Tr5 (transformant)
[2] = tested on: S. pneumoniae Sp2150, disrupted murMN operon; conditions: Streptococcus pneumoniae, strain Sp2150 (serotype 9/14, French/Spanish)
[3] = tested on: S. pneumoniae Clev2, intact murMN operon; conditions: Streptococcus pneumoniae, read-out: Penicillin MIC
Procedure: (§1) Transformation, population analysis profiles and determination of penicillin resistance level S. pneumoniae R36A and Pen6 were transformed essentially according to published procedures (8). To induce competence, synthetic CSPα was added to the medium at a concentration of 250 ng/ml. The competent cells were then incubated for 30 min at 30° C. in the presence of plasmidic DNA followed by the addition of 2 ml of C+Y medium and a 2 h incubation at 37° C. Transformants were selected on blood agar plates (TSA+3% (v/v) sheep blood) containing 1 μg/ml erythromycin. Population analysis profiles (PAPs) were determined by plating serial dilutions of early stationary phase cultures on plates of TSA containing 5% (v/v) of sheep blood (Micropure Medical Inc, White Bear Lake, Minn.), and different concentrations of Penicillin G (Sigma) (0, 0.01, 0.03, 0.06, 0.125, 0.25, 0.5, 1, 2, 4, 8, 16 ([…]). The PAPs were done with and without the presence of […] erythromycin in the medium. Plates were incubated at 37° C. in a 5% CO2-in-air atmosphere for 24 h and the number of bacteria capable of forming colonies in the presence of various penicillin concentrations was plotted against the concentration of penicillin in the agar medium. Penicillin resistance levels (minimal inhibitory concentration, MIC) were determined by the E-test following the manufacturers guidelines (AB Bidosk, Sweden).

[4] = tested on: S. pneumoniae Hun663, intact murMN operon; conditions: Streptococcus pneumoniae, read-out: Penicillin MIC
Procedure: as §1

[5] = tested on: S. pneumoniae Sp2150, intact murMN operon; conditions: Streptococcus pneumoniae, strain Sp2150 (serotype 9/14, French/Spanish)
Procedure: as §1

[6] = tested on: S. pneumoniae Pen6, intact murMN operon; conditions: Streptococcus pneumoniae, read-out: Penicillin MIC
Procedure: as §1

[7] = tested on: S. pneumoniae 8249, intact murMN operon; conditions: Streptococcus pneumoniae, strain 8249 (serotype 19A, South African)
Procedure: as §1

[8] = tested on: S. pneumoniae R36A, intact murMN operon; conditions: Streptococcus pneumoniae, strain R36A (laboratory strain)
Procedure: as §1

[9] = tested on: S. pneumoniae Ala1, intact murMN operon; conditions: Streptococcus pneumoniae, strain Ala1 (serotype 6B, Alaskan)
Procedure: as §1

[10] = tested on: S. pneumoniae Clev2, disrupted murMN operon; conditions: Streptococcus pneumoniae, strain Clev2 (serotype 23F, Spanish/USA)
[11] = tested on: S. pneumoniae R36A, disrupted murMN operon; conditions: Streptococcus pneumoniae, strain R36A (laboratory strain)
Procedure: (§2) Inactivation of the murMN operon. For gene disruption experiments, internal fragments of murM, from the bacterial strains R36A and Pen6, were amplified by PCR and cloned into pJDC9 (9). For amplification of the internal fragment of murM from R36A the following primers were used 5′-[…]-3′ (SEQ ID NO: 26) and 5′-[…]-3′ (SEQ ID NO: 27) giving origin to the plasmid pZOO5. Amplification of the internal fragment of murM from Pen6 was carried out using the primers 5′-[…]-3′ (SEQ ID NO:28) and 5′-[…]-3′ (SEQ ID NO: 29) giving origin to the plasmid pZOO6. For inactivation of the murMN operon in R36A and in Pen6, competent cells of R36A and Pen6 were transformed respectively with plasmids pZOO5 and pZOO6 (FIG. 1B).
(§3) Transformation, population analysis profiles and determination of penicillin resistance level S. pneumoniae R36A and Pen6 were transformed essentially according to published procedures (8). To induce competence, synthetic CSPα was added to the medium at a concentration of 250 ng/ml. The competent cells were then incubated for 30 min at 30° C. in the presence of plasmidic DNA followed by the addition of 2 ml of C+Y medium and a 2 h incubation at 37° C. […] Penicillin resistance levels (minimal inhibitory concentration, MIC) were determined by the E-test following the manufacturers guidelines (AB Bidosk, Sweden).

[12] = tested on: S. pneumoniae Pen6, disrupted murMN operon; conditions: Streptococcus pneumoniae, strain Pen6 (transformant)
Procedure: as §2, §3

[13] = tested on: S. pneumoniae Ala1, disrupted murMN operon; conditions: Streptococcus pneumoniae, strain Ala1 (serotype 6B, Alaskan)

## CC1(C)S[C@@H]2[C@H](NC(=O)Cc3ccccc3)C(=O)N2[C@H]1C(=O)O [Penicillin, Penicillin G]
[1]
  MIC: 0.032 µg/mL (≈ 0.0957 µM)
[2]
  MIC: 0.032 µg/mL (≈ 0.0957 µM)
[3]
  MIC: 1.6 µg/mL (≈ 4.78 µM)
[4]
  MIC: 1.6 µg/mL (≈ 4.78 µM)
[5]
  MIC: 1 µg/mL (≈ 2.99 µM)
[6]
  MIC: 6 µg/mL (≈ 17.9 µM)
[7]
  MIC: 6 µg/mL (≈ 17.9 µM)
[8]
  MIC: 0.023 µg/mL (≈ 0.0688 µM)
[9]
  MIC: 0.12 µg/mL (≈ 0.359 µM)
[10]
  MIC: 0.016 µg/mL (≈ 0.0478 µM)
[11]
  MIC: 0.023 µg/mL (≈ 0.0688 µM)
[12]
  MIC: 0.032 µg/mL (≈ 0.0957 µM)
[13]
  MIC: 0.064 µg/mL (≈ 0.191 µM)
